Structures can show the parent of a compound that is named as a salt.
Columns and labels:
Conditions in all cases: exposure time 48 h
[1] = system: Caenorhabditis elegans N2; experiment: mean nematode size ln(EXT) after 48 h, plate-adjusted (DMSO control set to 6) (ln(EXT), control-adjusted); higher = larger nematodes / less growth inhibition
In short: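 Each treatment used 4–6 wells of 50 synchronised C. elegans N2 L1 larvae, kept for 48 h at 20°C in K-medium with killed OP50, 1% DMSO and 0.5–200 µM chemical. Debris was excluded by a growth model after the Biosort measured per-worm extinction. Mean size per well came from natural-logged values and was plate-adjusted. That adjustment subtracted the vehicle control mean and then added 6.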

[2] = system: Caenorhabditis elegans N2; experiment: AC50 for larval growth inhibition (Hill fit); higher = less potent
In short: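 After 48 h at 20°C in K-medium with killed OP50, 1% DMSO and 0.5–200 µM chemical, synchronised C. elegans N2 L1 larvae (50 per well, 96-well plates) were sized individually as extinction on a COPAS Biosort. These values were log-transformed and averaged per well, and wells with fewer than 10 worms were excluded. The AC50 was derived from a constrained Hill fit by weighted genetic-algorithm regression, and out-of-range values are censored.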

[3] = system: Caenorhabditis elegans N2; experiment: lowest effective concentration for larval growth inhibition (size below effect threshold); higher = less potent
In short: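 In 96-well plates, 50 C. elegans N2 L1 larvae per well were cultured at 20°C for 48 h in K-medium with killed bacteria and 1% DMSO, plus the chemical at 0.5, 1, 5, 10, 50, 100 or 200 µM. Size was measured as per-worm extinction on a Biosort and log-transformed into well means. Taking the first dose where the plate-adjusted mean size sits under 5.665 and stays there at higher doses gives the lowest effective concentration.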

| SMILES | mean nematode size ln(EXT) (ln) ([1]; 0.5 µM) | mean nematode size ln(EXT) (ln) ([1]; 1 µM) | mean nematode size ln(EXT) (ln) ([1]; 5 µM) | mean nematode size ln(EXT) (ln) ([1]; 10 µM) | mean nematode size ln(EXT) (ln) ([1]; 50 µM) | mean nematode size ln(EXT) (ln) ([1]; 100 µM) | mean nematode size ln(EXT) (ln) ([1]; 200 µM) | AC50 for larval growth inhibition [2] [µM] | lowest effective concentration [3] [µM] |
| --- | --- | --- | --- | --- | --- | --- | --- | --- | --- |
| Cc1cc(NC(=O)C(=O)O)cc(C)c1Oc1ccc(O)c2c1CCC2 | 5.86 | 5.81 | 5.88 | 5.83 | 5.84 | 5.76 | 5.58 | > 200 | 200 |
| O=C(OCCCCCOC(=O)c1ccccc1)c1ccccc1 [1,5-Pentanediol,1,5-dibenzoate] | 5.88 | 5.89 | 5.84 | 5.85 | 5.86 | 5.98 | 5.48 | > 200 | 200 |
| COP(=S)(OC)SCN1C(=O)c2ccccc2C1=O [Phosmet] | 5.89 | 5.76 | 5.86 | 5.61 | 5.66 | 5.52 | 5.02 | > 200 | 10 |
| Nc1cc2c3c(c1)C(c1ccccc1)=N[C@@H](NC(=O)c1cccnc1)C(=O)N3CC2 | 5.78 | 5.74 | 5.7 | 5.73 | 5.63 | 5.62 | 5.61 | > 200 | 50 |
| O=C(CCCN1CCC(O)(c2ccc(Cl)cc2)CC1)c1ccc(F)cc1 [Haloperidol] | 5.95 | 5.85 | 5.93 | 5.66 | 4.99 | 4.71 | 4.44 | 43.3 | 10 |
| CCCOC(=O)c1cc(O)c(O)c(O)c1 [Propyl gallate] | 5.91 | 5.94 | 6.05 | 5.78 | 5.95 | 5.81 | 5.54 | 126 | 200 |
| CCCN(CCC)c1c([N+](=O)[O-])cc(S(N)(=O)=O)cc1[N+](=O)[O-] [Oryzalin] | 5.9 | 5.91 | 5.84 | 5.72 | 5.27 | 4.95 | 4.56 | > 200 | 50 |
| CCOP(=O)(SC(C)CC)N1CCSC1=O (centres undefined) [Fosthiazate] | 5.92 | 5.99 | 6.15 | 6.12 | 5.94 | 5.79 | 5.64 | 93.1 | 200 |
| CCCCOC(=O)c1ccc(O)cc1 [Butylparaben] | 5.84 | 5.8 | 5.75 | 5.78 | 5.96 | 5.68 | 5.19 | 103 | 200 |
| CN(C)c1ccc(Cc2ccc(N(C)C)cc2)cc1 [4,4'-methylenebis(N,N-dimethylaniline)] | 5.92 | 5.8 | 5.81 | 5.86 | 5.74 | 5.17 | 5.04 | 66.3 | 100 |
| C=CCc1cc(S(=O)(=O)c2ccc(O)c(CC=C)c2)ccc1O [4,4'-sulfonylbis[2-(prop-2-en-1-yl)phenol]] | 5.87 | 5.88 | 5.9 | 5.89 | 5.39 | 5.1 | 4.49 | 190 | 50 |
| CCCCNC(=O)OCC#CI [3-Iodo-2-propynylbutylcarbamate] | 6.05 | 5.98 | 6.06 | 6.03 | 5.84 | 4.8 | 3.17 | 101 | 100 |
| Cc1c(F)c(F)c(COC(=O)[C@@H]2[C@H](/C=C(\Cl)C(F)(F)F)C2(C)C)c(F)c1F (racemic) [Tefluthrin] | 5.7 | 5.77 | 5.71 | 5.79 | 5.39 | 5.29 | 5.13 | > 200 | 50 |
| COc1ccc(O)c(C(C)(C)C)c1 [2-tert-Butyl-4-methoxy-phenol] | 5.78 | 5.98 | 5.87 | 5.84 | 5.94 | 5.8 | 5.54 | > 200 | 200 |
| CN(C)[C@@H]1C(=O)C(C(N)=O)=C(O)[C@@]2(O)C(=O)C3=C(O)c4c(O)cccc4[C@@](C)(O)[C@H]3[C@H](O)[C@@H]12 [Oxytetracycline hydrochloride] | 5.99 | 5.96 | 5.95 | 6.01 | 5.9 | 5.64 | 5.48 | 81.4 | 100 |
| CC(C)(O)c1cnn2c(-c3ccc(F)c(-c4c(F)cccc4C#N)c3)cnc2n1 | 5.88 | 5.79 | 5.71 | 5.8 | 5.82 | 5.66 | 5.05 | > 200 | 100 |
| CCN(CC)C(=O)SCc1ccc(Cl)cc1 [Thiobencarb] | 5.97 | 5.98 | 5.97 | 5.95 | 5.44 | 4.48 | 4.48 | 51.1 | 50 |
| CCCCCCCCCCCCCO [1-Tridecanol] | 5.9 | 5.76 | 5.58 | 5.34 | 3.57 | 3.5 | 3.54 | 15.4 | 5 |

| SMILES | mean nematode size ln(EXT) (ln) ([1]; 0.5 µM) | mean nematode size ln(EXT) (ln) ([1]; 1 µM) | mean nematode size ln(EXT) (ln) ([1]; 5 µM) | mean nematode size ln(EXT) (ln) ([1]; 10 µM) | mean nematode size ln(EXT) (ln) ([1]; 50 µM) | mean nematode size ln(EXT) (ln) ([1]; 100 µM) | mean nematode size ln(EXT) (ln) ([1]; 200 µM) | AC50 for larval growth inhibition [2] [µM] | lowest effective concentration [3] [µM] |
| --- | --- | --- | --- | --- | --- | --- | --- | --- | --- |
| C[C@@H]1[C@@H](c2ccc(Cl)cc2)SC(=O)N1C(=O)NC1CCCCC1 [Hexythiazox] | 6.07 | 5.94 | 5.91 | 5.99 | 5.68 | 5.34 | 3.24 | 122 | 100 |
| CCOP(=S)(OCC)Oc1ccc2c(C)c(Cl)c(=O)oc2c1 [Coumaphos] | 5.36 | 5.23 | 4.39 | 4.44 | 3.95 | 3.82 | 3.58 | 3.33 | ≤ 0.5 |
| CC(C)=CC1C(C(=O)OCc2coc(Cc3ccccc3)c2)C1(C)C (centres undefined) [Resmethrin] | 5.75 | 5.64 | 5.46 | 5.58 | 5.84 | 5.8 | 4.98 | > 200 | 200 |
| CN(C)C(=O)C1(N2CCCCC2)CCN(CCC2(c3ccc(Cl)c(Cl)c3)CN(C(=O)c3ccccc3)CCO2)CC1 (centres undefined) | 5.78 | 5.82 | 5.83 | 5.77 | 5.23 | 4.76 | 4.06 | 119 | 50 |
| CC(C)(C)c1ccc(O)c(C(C)(C)C)c1 [2,4-Di-tert-butylphenol] | 5.97 | 5.97 | 5.99 | 5.88 | 5.62 | 5.5 | 4.45 | 186 | 50 |
| CO/C=C(/C(=O)OC)c1ccccc1Oc1cc(Oc2ccccc2C#N)ncn1 [Azoxystrobin] | 5.84 | 5.87 | 5.93 | 5.9 | 5.8 | 5.85 | 5.5 | > 200 | 200 |
| CCOC(=O)[C@]1(c2ccccc2)Oc2ccccc2[C@@H]1N | 5.84 | 5.73 | 5.71 | 5.27 | 4.94 | 5.43 | 4.03 | 56.5 | 10 |
| CCN(CC)c1nc(C)cc(OP(=S)(OC)OC)n1 [Pirimiphos-methyl] | 5.93 | 5.93 | 5.83 | 5.92 | 6.01 | 6.01 | 4.12 | 124 | 200 |
| Cc1ccc2ncccc2c1 [6-Methylquinoline] | 5.98 | 5.83 | 5.87 | 5.76 | 5.74 | 5.67 | 5.52 | > 200 | 200 |
| COS(=O)(=O)OC [Dimethyl sulfate] | 5.83 | 5.97 | 6.03 | 5.92 | 5.98 | 5.28 | 5.61 | 61.5 | 100 |
| CCCN(CCC)c1c([N+](=O)[O-])cc(C(F)(F)F)cc1[N+](=O)[O-] [Trifluralin] | 5.85 | 6.06 | 6.05 | 6 | 5.03 | 6.06 | 3.63 | 53 | 200 |
| COC(=O)N(OC)c1ccccc1COc1ccn(-c2ccc(Cl)cc2)n1 [Pyraclostrobin] | 6 | 5.89 | 5.83 | 5.89 | 5.21 | 4.93 | 4.43 | 97.6 | 50 |
| Cc1cccc(N)c1N [3-Methylbenzene-1,2-diamine] | 6.01 | 5.93 | 5.87 | 5.79 | 5.78 | 5.79 | 5.05 | > 200 | 200 |
| CCCCCCC(C)OC(=O)COc1nc(F)c(Cl)c(N)c1Cl (centres undefined) [Fluroxypyr-meptyl] | 5.84 | 5.84 | 6.02 | 5.94 | 5.83 | 6.29 | 4.64 | 185 | 200 |
| CSc1ccc(Oc2ccc(S(N)(=O)=O)cc2CN(C)C)cc1C | 5.74 | 5.87 | 5.86 | 5.84 | 5.83 | 5.69 | 5.17 | > 200 | 200 |
| Cc1c(C)c2c(c(C)c1O)CCC(C)(COc1ccc(CC3SC(=O)NC3=O)cc1)O2 (centres undefined) [Troglitazone] | 5.7 | 5.77 | 5.66 | 5.69 | 4.39 | 4.11 | 3.59 | 47.7 | 50 |
| CC(Oc1ccc(Cl)cc1Cl)C(=O)O (centres undefined) [Dichlorprop] | 5.91 | 5.93 | 5.86 | 6.06 | 6.04 | 5.88 | 5.44 | 106 | 200 |
| CCOC(=O)NCCOc1ccc(Oc2ccccc2)cc1 [Fenoxycarb] | 5.96 | 5.87 | 5.9 | 5.59 | 4.47 | 4.1 | 3.72 | 37.2 | 10 |

Reference: the supplement of paper PMC4858399
